Patent US4985558A, “1,4-dihydropyridine derivative” (Nikken Chemicals Co., Ltd., priority 1988, dated 1991)
Values joined by “and” are separate entries in the source; they are usually repeats but may differ in a detail not shown here. Equal values may be shown once.

Columns and labels:
[1] = tested on: spontaneously hypertensive rats (SHR); details: rat, in vivo, ip, 100 mg/kg
Description: The systolic blood pressure was measured by using spontaneously hypertensive rats (SHR), which are a model of hypertension when examine the hypotensive activities of the compounds of the present invention and the positive Control compound. The rats were warmed for 5 minutes in a warming box at 55° C., and their blood pressure then measured by a tail cuff plethysmograph. The compounds of the present invention were administered singly and intraperitoneally at a dose of 100 mg/kg and the positive Control compound was administered singly and intraperitoneally at a dose of 10 mg/kg. […] Blood pressure measurements were taken before administration and 60 minutes after administration. Nicardipine was employed as the positive Control compound.

[2] = tested on: ICR mice; test: acute toxicity test; details: mouse, in vivo;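 note: intraperitoneal dosing with deaths counted over 10 days of observation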
Description: Male 6-week-old ICR mice were divided into groups of 2 to 5 mice per group. […] The drugs to be tested were administered in varying amounts of 250 to 2000 mg/kg to 5 or 7 groups (a geometrical series of .cent.2), at a dose volume of 10 ml/kg. In the Table, the respective compounds have the same meanings as described above.

[3] = tested on: rat rectum smooth muscle; test: Inhibitory effects on potassium contracture in rat rectum smooth muscle; type: cell-based; details: 5 min, K contraction 5.6 to 56.0 mM, read-out: Inhibition ratio; for inhibition at 0.1 µM: 10^-7 M
Description: Rat rectum (about 1.5 cm) was isolated and suspended in a Magnus tube. A Locke solution was employed as the nutrient solution, and a contraction of the intestinum rectum was caused by changing the potassium (K) concentration of this solution from 5.6 mmol (mM) to 56.0 mM. This contraction was a contraction through a membrane dependent Ca-channel mediated contraction based on depolarization by a K concentration change. The contraction was recorded by an FD-transducer and polygraph. The compounds of the present invention were permitted to act 5 minutes before changing the K concentration, and simultaneously with changing the K concentration. […] A judgement was made 5 minutes after changing the K concentration, and the difference in contraction before the concentration change was indicated as an inhibition % value. Verapamil and nicardipine were employed as the positive control compound .

[4] = tested on: vincristine (VCR)-resistant mouse leukemia (P388/VCR) cells; test: Antitumor agent potentiating effect in vincristine-resistant tumor bearing mouse (Example 11, i.p. 5 days); type: in vivo
Description: The potentiating effect of the antitumor agent (T/V) % was determined according to the formula shown below. Verapamil was employed as the positive Control compound. […] In the Tables, Compound 1 is the compound obtained in Example 1, Compound 2 that obtained in Example 2, Compound 3 that obtained in Example 3, Compound 4 that obtained in Example 4, and Compound 5 that obtained in Example 5. [formula]

[5] = compound 100 mg/kg i.p. + VCR 30 μg/kg i.p.
[6] = compound alone 100 mg/kg i.p., no VCR

SMILES	Blood pressure change [1]	Systolic Blood Pressure 60 minutes after administration [1]	Mortality [2]	inhibition at 0.1 µM [3]	inhibition at 0.01 µM ([3]; 10^-8 M)	Potentiating effect T/V [4, 5]	Survival Days (Mean ± SD) [4, 5]	Survival ratio T/C [4, 5]	Survival Days (Mean ± SD) [4, 6]	Survival ratio T/C [4, 6]
CC1=C(C(=O)OCc2cccc(C)n2)C(C2=COCCO2)C(C(=O)OCc2cccc(C)n2)=C(C)N1 [Compound 2]	-15 mmHg	204 mmHg	0/4 and 1/5 and 0/5	-2.1%	-5.6%	130%	13.7 ± 1.0 days	140%	10.3 ± 0.5 days	105%
CC1=C(C(=O)OCc2ccccn2)C(C2=COCCO2)C(C(=O)OCc2ccccn2)=C(C)N1 [Compound 1, bis(2-pyridylmethyl) 4-[2-(5,6-dihydro-p-dioxinyl)]-2,6-dimethyl-1,4-dihydropyridine-3,5-dicarboxylate]			0/2	11.2%		116%	14.5 ± 1.6 days	121%	12.2 ± 0.8 days	102%
